The target in one test is T1, CB1 receptor (Rattus norvegicus, UniProt P20272).
T1 construct: membranes were prepared from rat forebrain membranes; from tissue; host or cells: rat forebrain
Kind of test: CB1 receptor binding, [3H] CP-55,940 displacement, rat forebrain membranes. Conditions: for Ki: rat forebrain membranes, 0.8 nM [3H] CP-55,940, read-out: Kl CB1; for selectivity for the CB1 receptor: binding selectivity CB1 versus CB2, from the results in the TABLES. As to the method:
(§1) The materials were tested for CB2 receptor binding affinity and for CB1 receptor affinity (to determine selectivity for the CB2 receptor). As used herein, “binding affinity” is represented by the IC50 value which is the concentration of an analog required to occupy the 50% of the total number (Bmax) of the receptors. The lower the IC50 value the higher the binding affinity.
For the CB1 receptor binding studies, membranes were prepared from rat forebrain membranes according to the procedure of P. R. Dodd et al, A Rapid Method for Preparing Synaptosomes: Comparison with Alternative Procedures, Brain Res., 107–118 (1981). The binding of the novel analogues to the CB1 cannabinoid receptor was assessed as described in W. A. Devane et al, Determination and Characterization of a Cannabinoid Receptor in a Rat Brain, Mol. Pharmacol., 34, 605–613 (1988) and A. Charalambous et al, 5′-azido Δ^8 THC: A Novel Photoaffinity Label for the Cannabinoid Receptor, J. Med. Chem., 35, 3076–3079 (1992) with the following changes. The above articles are incorporated by reference herein.
Membranes, previously frozen at −80° C., were thawed on ice. To the stirred suspension was added three volumes of TME (25 mM Tris-HCl buffer, 5 mM MgCl2 and 1 mM EDTA) at a pH 7.4. The suspension was incubated at 4° C. for 30 min. At the end of the incubation, the membranes were pelleted and washed three times with TME.
(§2) The treated membranes were subsequently used in the binding assay described below. Approximately 30 μg of membranes were incubated in silanized 96-well microtiter plate with TME containing 0.1% essentially fatty acid-free bovine serum albumin (BSA), 0.8 nM [^3H] CP-55,940, and various concentrations of test materials at […] for 1 hour. The samples were filtered using Packard Filtermate 196 and Whatman GF/C filterplates and washed with wash buffer (TME) containing 0.5% BSA. Radioactivity was detected using MicroScint 20 scintillation cocktail added directly to the dried filterplates, and the filterplates were counted using a Packard Instruments Top-Count. Nonspecific binding was assessed using 100 nM CP-55,940. Data collected from three independent experiments performed with duplicate determinations was normalized between 100% and 0% specific binding for [^3H] CP-55,940, determined using buffer and 100 nM CP-55,940. The normalized data was analyzed using a 4-parameter nonlinear logistic equation to yield IC50 values. Data from at least two independent experiments performed in duplicate was used to calculate IC50 values which were converted to Ki values using the assumptions of Cheng et al, Relationship Between the Inhibition Constant (Ki) and the concentration of Inhibitor which causes 50% Inhibition (IC50) of an Enzymatic Reaction, Biochem. Pharmacol., 22, 3099–3102, (1973), which is incorporated by reference herein.

In the next test the target is T2, CB2 receptor (Mus musculus, UniProt P47936).
T2 construct: membranes were prepared from frozen mouse spleen; from tissue; host or cells: mouse spleen
T2 sequence (P47936 whole entry): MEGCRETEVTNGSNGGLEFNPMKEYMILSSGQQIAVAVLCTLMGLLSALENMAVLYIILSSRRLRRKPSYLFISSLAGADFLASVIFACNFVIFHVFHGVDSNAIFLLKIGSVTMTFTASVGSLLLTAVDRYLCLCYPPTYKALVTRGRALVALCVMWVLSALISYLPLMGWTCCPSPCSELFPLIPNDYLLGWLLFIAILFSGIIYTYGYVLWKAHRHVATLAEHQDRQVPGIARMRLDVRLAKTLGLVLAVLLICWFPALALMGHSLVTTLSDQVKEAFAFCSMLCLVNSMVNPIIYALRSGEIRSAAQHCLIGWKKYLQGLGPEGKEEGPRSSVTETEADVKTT
The test is described as follows: CB2 receptor binding, [3H] CP-55,940 displacement, mouse spleen membranes. Conditions: for Ki: mouse spleen membranes, [3H] CP-55,940, read-out: Kl CB2 (converted); for selectivity for the CB2 receptor: binding selectivity CB2 versus CB1, from the results in the TABLES. As to the method: as §1, §2
For the CB2 receptor binding studies, membranes were prepared from frozen mouse spleen essentially according to the procedure of P. R. Dodd et al, A Rapid Method for Preparing Synaptosomes: Comparison with Alternative Procedures, Brain Res., 226, 107–118 (1981) which is incorporated by reference herein. Silanized centrifuge tubes were used throughout to minimize receptor loss due to adsorption. The CB2 binding assay was conducted in the same manner as for the CB1 binding assay. The binding affinities (Ki) were also expressed in nanomoles (nM).

Read-outs that look alike come from different tables or passages of the source.

T1 sequence (P20272 whole entry): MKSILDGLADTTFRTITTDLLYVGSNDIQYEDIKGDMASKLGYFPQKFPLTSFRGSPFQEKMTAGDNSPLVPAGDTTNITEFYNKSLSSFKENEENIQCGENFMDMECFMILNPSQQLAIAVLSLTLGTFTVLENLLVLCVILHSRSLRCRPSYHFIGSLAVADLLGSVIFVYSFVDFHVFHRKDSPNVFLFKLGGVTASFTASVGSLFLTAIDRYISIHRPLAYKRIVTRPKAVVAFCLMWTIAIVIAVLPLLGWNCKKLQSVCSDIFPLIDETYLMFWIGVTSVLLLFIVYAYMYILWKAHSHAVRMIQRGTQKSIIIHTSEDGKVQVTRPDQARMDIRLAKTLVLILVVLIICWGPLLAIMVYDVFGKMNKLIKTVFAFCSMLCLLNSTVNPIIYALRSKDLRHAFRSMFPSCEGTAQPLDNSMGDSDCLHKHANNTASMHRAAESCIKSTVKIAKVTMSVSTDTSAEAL

Consider `CCCCCn1c(C)c(C(=O)c2ccc(N(C)C)c3ccccc23)c2ccccc21` [AM1256], for which the Ki at CB1 receptor (TABLE 2) was 4.74 nM; on CB2 receptor (TABLE 2), 18.6 nM.

Turning to `CC(=O)OCCCCn1cc(C(=O)c2cccc3ccccc23)c2ccccc21` [AM1282], the results for the Ki on CB1 receptor (TABLE 2) and at CB2 receptor (TABLE 2) were 133 nM and 101 nM, respectively.

As for `O=C(c1cccc2ccccc12)c1cn(CCCCO)c2ccccc12` [AM1283], the Ki on CB1 receptor (TABLE 2) is 117 nM; at CB2 receptor (TABLE 2) it was 196 nM.

`CC(=O)OCCCn1cc(C(=O)c2cccc3ccccc23)c2ccccc21` [AM1284]: the figures for the Ki on CB1 receptor (TABLE 2) and at CB2 receptor (TABLE 2) were 127 nM and 103 nM, respectively.

Take `Cc1ccc(S(=O)(=O)OCCCCn2cc(C(=O)c3cccc4ccccc34)c3ccccc32)cc1` [AM1286]: the Ki was 1510 nM at CB1 receptor (TABLE 2) and 1290 nM on CB2 receptor (TABLE 2).

As to `O=C(c1cccc2ccccc12)c1cn(CCCCI)c2ccccc12` [AM1288], the Ki was 1.3 nM on CB1 receptor (TABLE 2) and 10.5 nM on CB2 receptor (TABLE 2). The “selectivity for the CB1 receptor” value on CB1 receptor is “high selectivity for the CB1 receptor”.

Consider `Cc1ccc(S(=O)(=O)OCCCn2cc(C(=O)c3cccc4ccccc34)c3ccccc32)cc1` [AM1289], for which the Ki on CB1 receptor (TABLE 2) was 360 nM; on CB2 receptor (TABLE 2), 78.6 nM. In addition, the “selectivity for the CB2 receptor” value on CB2 receptor is “high selectivity for the CB2 receptor”.

As to `O=C(c1cccc2ccccc12)c1cn(CCCCN=C=S)c2ccccc12` [AM1291], the figures for the Ki at CB1 receptor (TABLE 2) and on CB2 receptor (TABLE 2) were 2960 nM and 1800 nM, respectively.

With `O=C(c1cccc2ccccc12)c1cn(CCCI)c2ccccc12` [AM1292], the Ki at CB1 receptor (TABLE 2) is 3.1 nM; on CB2 receptor (TABLE 2), 18.1 nM.

For the compound `O=C(c1cccc2ccccc12)c1cn(CCCN=C=S)c2ccccc12` [AM1294], the values for the Ki on CB1 receptor (TABLE 2) and at CB2 receptor (TABLE 2) were 283 nM and 237 nM, respectively.

`O=C(c1cccc2ccccc12)c1cn(CCCCF)c2ccccc12` [AM1295]: the Ki at CB1 receptor (TABLE 2) was 2.5 nM; on CB2 receptor (TABLE 2) it was 30.7 nM. For the same compound, on CB1 receptor, the “selectivity for the CB1 receptor” value is “high selectivity for the CB1 receptor”.

`CN1CCCCC1Cn1cc(C(=O)c2cccc3ccccc23)c2ccccc21` (stereo not shown) [AM1296]: the Ki was 7.57 nM on CB1 receptor (TABLE 1, racemic samples) and 3.88 nM at CB2 receptor (TABLE 1, racemic samples).

On to `CN1CCCCC1Cn1cc(C(=O)c2ccc([N+](=O)[O-])c3ccccc23)c2ccccc21` (stereo not shown) [AM1299], for which the Ki at CB1 receptor (TABLE 1, racemic samples) was 12.4 nM; at CB2 receptor (TABLE 1, racemic samples), 13.5 nM.

For the compound `O=C(c1cccc2ccccc12)c1cn(CCCCCF)c2ccccc12` [AM2201], the Ki on CB1 receptor (TABLE 2) was 1 nM; on CB2 receptor (TABLE 2), 2.6 nM.

As to `O=C(c1cccc2ccccc12)c1cn(CCCCCO)c2ccccc12` [AM2202], the Ki on CB1 receptor (TABLE 2) is 33.1 nM; at CB2 receptor (TABLE 2), 111 nM.

As to `O=C(c1cccc2ccccc12)c1cn(CCCCCI)c2ccccc12` [AM2203], the values for the Ki at CB1 receptor (TABLE 2) and at CB2 receptor (TABLE 2) were 7.8 nM and 45.8 nM, respectively.

With `O=C(c1cccc2ccccc12)c1cn(CCCCCN=C=S)c2ccccc12` [AM2204], the Ki at CB1 receptor (TABLE 2) is 7.5 nM; on CB2 receptor (TABLE 2) it was 24.4 nM.

Regarding `O=C(c1ccc([N+](=O)[O-])c2ccccc12)c1cn(CCCCI)c2ccccc12` [AM2210], the results for the Ki on CB1 receptor (TABLE 2) and at CB2 receptor (TABLE 2) were 1.8 nM and 11.3 nM, respectively.

On to `[N-]=[N+]=Nc1ccc(C(=O)c2cn(CCCCI)c3ccccc23)c2ccccc12` [AM2213], for which the values for the Ki on CB1 receptor (TABLE 2) and on CB2 receptor (TABLE 2) were 3 nM and 30 nM, respectively.

Turning to `O=C(c1ccc(N=C=S)c2ccccc12)c1cn(CCCCI)c2ccccc12` [AM2216], the Ki at CB1 receptor (TABLE 2) is 42.4 nM; at CB2 receptor (TABLE 2), 213 nM.

On to `Cc1c(C(=O)c2ccccc2I)c2ccccc2n1CCCCCF` [AM2225], for which the results for the Ki at CB1 receptor (TABLE 2) and on CB2 receptor (TABLE 2) were 5.97 nM and 3.8 nM, respectively.

`Cc1ccc(S(=O)(=O)OCCCCCn2c(C)c(C(=O)c3ccccc3I)c3ccccc32)cc1` [AM2227]: the Ki was 1020 nM at CB1 receptor (TABLE 2) and 2970 nM on CB2 receptor (TABLE 2).

With `Cc1c(C(=O)c2ccccc2I)c2ccccc2n1CCCCCI` [AM2229], the Ki at CB1 receptor (TABLE 2) was 116 nM; on CB2 receptor (TABLE 2), 46.2 nM.

Consider `Cc1c(C(=O)c2ccccc2I)c2ccccc2n1CCCCCN=C=S` [AM2230], for which the Ki on CB1 receptor (TABLE 2) was 195 nM; at CB2 receptor (TABLE 2) it was 29.5 nM. Moreover, the “selectivity for the CB2 receptor” value on CB2 receptor is “high selectivity for the CB2 receptor”.

With `N#CCCCCn1cc(C(=O)c2cccc3ccccc23)c2ccc([N+](=O)[O-])cc21` [AM2231], the Ki at CB1 receptor (TABLE 2) was 4.9 nM; at CB2 receptor (TABLE 2), 23.9 nM.

Turning to `N#CCCCCn1cc(C(=O)c2cccc3ccccc23)c2ccccc21` [AM2232], the Ki was 0.28 nM at CB1 receptor (TABLE 2) and 1.48 nM on CB2 receptor (TABLE 2).

With `O=C(c1cccc2ccccc12)c1cn(CCCCCF)c2cc(I)ccc12` [Am1230], the Ki on CB1 receptor (TABLE 2) is 1.1 nM; at CB2 receptor (TABLE 2) it was 2.4 nM.

These data come from patent publication US7241799B2, “Cannabimimetic indole derivatives” (University of Connecticut, priority 1999, dated 2007).
